Among the data in patent publication US20190335749A1, “Adjustable Release Pesticide Tablet Formulations” (priority 2018, published 2019) are TFM release rate and solubility in water values, retold here.

Data set [1] can be described thus: TFM release rate in flow chamber, 11 L of water per minute. Type of data set: physicochemical. Particulars: flow of 11 L of water per minute; 20 g TFM; FIG. 8, FIG. 9. An excerpt:
To scale up from the tablet press, a hand-driven compression clamp was assembled in a fashion to create a compressed 20 g TFM cylinder 1 inch in diameter or combination of tablets adding to 20 g total TFM. Variables investigated were matrix type (tea bag vs porous cotton mesh), tablet size, formulation, and compression strength of formulation. The resulting tablets were placed into a flow chamber with a flow of 11 L of water per minute and aliquots were taken at designated time periods to evaluate TFM release rates.
Tablets H, I and J were all prepared according to Tablet E except that increasing amounts of sand were added as a density modifier to ensure tablets remained submerged.

The conditions of data set [2]: cited from earlier work.

Take `O=[N+]([O-])c1ccc([O-])cc1C(F)(F)F.[K+]` [TFM phenoxide salt]: in data set [1], the TFM release rate entry is “releases the fastest”.

Turning to `[Cu+2].[OH-].[OH-]` [Copper hydroxide], the solubility in water result in data set [2] was “extremely low solubility”.

Turning to `O=C(O)COc1ccc(Cl)cc1Cl` [neutral 2,4-D, 2,4-Dichlorophenoxyacetic Acid], the solubility in water result in data set [2] is “less water soluble”.
